Literature values, collected in US20140088058A1 (PARTHENOGEN SAGL, priority 2011, published 2014).

Columns and labels:
[1] = test system: infarct formation
[2] = test system: FSH and LH plasma concentration
[3] = test system: LH surge
[4] = test system: gonadotrophin surge, oocytes collected; conditions: 40 mg oral route since early days of FSH administration

For `NC(=O)c1ccc[n+]([C@@H]2O[C@H](COP(=O)([O-])OP(=O)(O)OC[C@H]3O[C@@H](n4cnc5c(N)ncnc54)[C@H](O)[C@@H]3O)[C@@H](O)[C@H]2O)c1` [NAD+], the “effect following rat brain ischemia” value ([1]; given by injection) is given as “ineffective” and the “reduction of infarct formation” value ([1]; nasal route, rat brain ischemia) is given as 90%.
For `CC#C[C@]1(O)CC[C@H]2[C@@H]3CCC4=CC(=O)CCC4=C3[C@@H](c3ccc(N(C)C)cc3)C[C@@]21C` [mifepristone, 17β-hydroxyl-11β-(4-dimethyl-aminophenyl-1)-17α-(prop-1-ynyl)-estra-4,9-diene-3-one], the “effect on FSH and LH plasma concentration” value ([2]; 10 or 100 mg per os) is given as “reduction”, the “solubility in dimethyl sulfoxide (DMSO)” value (DMSO) is given as “more than 20 mg/ml” and the solubility in ethanol (ethanol) is given as “more than 20 mg/ml”. The “circulating levels of FSH and LH” value ([3]; 1 mg per os for 5 days, from dominant follicle 14-16 mm) was “remained flat”, the “LH surge timing versus placebo” value ([3]; 1 mg per os for 5 days, placebo surge within 1 to 3 days) was “delayed in all treated women” and the gonadotrophin surge [4] was “did not have a gonadotrophin surge”.
In the case of `CC(=O)[C@H]1CC[C@H]2[C@@H]3CCC4=CC(=O)CC[C@]4(C)[C@H]3CC[C@]12C` [progesterone], the “effect on plasma FSH and LH concentration” value ([2]; 10 mg i.m. in mid- or late-follicular phase) is listed as “acute increase” and the “women with gonadotrophin surge within one day from first progesterone injection” value ([3]; after mifepristone 1 mg per os, progesterone i.m. 2.5 mg bid day 1, 5 mg bid day 2) is listed as 5 out of 6.
